Test systems include A498; CCRF-CEM; COLO 205; HCT-15; HOP-92; HT-29; Hs-578T; K562; KM12; LOX IMVI; M14; NCI-H226; PC-3; RXF 393; SF-268; SK-MEL-28; SK-OV-3; SN12C; SNB-19; SR.
Common to all, as to assay: NCI anticancer screen, dose series, 48 h

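Exposure lasted 48 hours, with cells grown in 96-well plates and compounds tested at five concentrations. GI50 = concentration required for 50% inhibition of growth.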 Active and inactive are the calls of the source. Rule as the data show it: active = GI50 up to about 1.1 µM and inactive = higher.

`CC1=NN(C(=O)CSc2nc3ccc(I)cc3c(=O)n2Cc2ccccc2)C(=O)C1`: the GI50 in the test on A498 is 22.4 µM (inactive); in the test with CCRF-CEM, 27.9 µM (inactive); with COLO 205 it was 33.5 µM (inactive); in the test with HCT-15, 21.5 µM; with HOP-92, 36.1 µM (inactive); with HT-29, 34.3 µM (inactive). The GI50 with Hs-578T is 7.89 µM (inactive); with K562, 23.8 µM (inactive); in the test with KM12, 28.3 µM (inactive); with LOX IMVI, 16.4 µM (inactive); in the test with M14, 31.7 µM (inactive); in the test with NCI-H226, 43.9 µM (inactive). The GI50 with PC-3 was 17.2 µM (inactive); in the test on RXF 393, 25.9 µM (inactive); in the test on SF-268, 21.4 µM (inactive); with SK-MEL-28, 57.3 µM (inactive); with SK-OV-3 it was 29.1 µM (inactive); with SN12C, 29.3 µM (inactive). Also, the figures for the GI50 in the test with SNB-19 and with SR were 33.7 µM (inactive) and 16.9 µM (inactive), respectively.

Take `CC1=NN(c2cccc(Cl)c2)C2(SCC(=O)N2c2nc3ccccc3s2)C1=CC=Cc1ccccc1` (stereo not given): the GI50 in the test on A498 is 20.7 µM (inactive); with CCRF-CEM, 3.4 µM (inactive); with HCT-15, 29.2 µM; with HOP-92 it was 17.7 µM (inactive); with HT-29 it was 30.1 µM (inactive); in the test with Hs-578T, 27.7 µM (inactive). Besides, the GI50 with K562 was 13.3 µM (inactive); in the test on KM12, 31.2 µM (inactive); in the test on LOX IMVI, 35.3 µM (inactive); in the test on M14, 32.1 µM (inactive); in the test with NCI-H226, 53 µM (inactive); in the test on PC-3 it was 29.7 µM (inactive). For the same compound, the GI50 with RXF 393 is 25.5 µM (inactive); in the test on SF-268, 31.6 µM (inactive); in the test on SK-MEL-28, 34.4 µM (inactive); with SK-OV-3, 27.4 µM (inactive); with SR it was 16.4 µM (inactive).

With `Cc1cc2c(cc1-c1cc3c(cc1C)C(C(C)C)=C(O)C(=O)/C3=C\Nc1nc(-c3ccccc3)cs1)/C(=C/Nc1nc(-c3ccccc3)cs1)C(=O)C(O)=C2C(C)C`, the GI50 is 35.6 µM (inactive) with A498; 12.6 µM (inactive) in the test on CCRF-CEM; 31.6 µM (inactive) with COLO 205; 25.4 µM with HCT-15; 18.8 µM (inactive) with HOP-92; 22.2 µM (inactive) with HT-29. Further, the GI50 in the test on Hs-578T was 37.3 µM (inactive); with K562 it was 11.7 µM (inactive); with KM12, 32.1 µM (inactive); with M14, 12.9 µM (inactive); in the test on NCI-H226, 22.2 µM (inactive); with PC-3 it was 15.7 µM (inactive). For the same compound, the GI50 in the test with RXF 393 was 15.3 µM (inactive); with SF-268, 24.6 µM (inactive); in the test with SK-MEL-28, 16.8 µM (inactive); with SK-OV-3, 21.1 µM (inactive); with SN12C, 22.3 µM (inactive); with SNB-19 it was 17.1 µM (inactive). The GI50 with SR was 32.5 µM (inactive).

Take `CCOC(=O)c1cc(C2CCN(Cc3ccccc3)C2=O)c(C(=O)C(=[N+]=[N-])C(C)=O)[nH]1` (stereo not given): the GI50 is > 100 µM (inactive) in the test on A498; > 100 µM (inactive) in the test on CCRF-CEM; > 100 µM (inactive) in the test on COLO 205; over 100 µM in the test with HCT-15; > 100 µM (inactive) in the test with HOP-92; > 100 µM (inactive) with HT-29. The GI50 in the test on Hs-578T, with K562, in the test on KM12, with LOX IMVI, in the test on M14 and with NCI-H226 was > 100 µM (inactive) each time. Besides, the GI50 in the test with PC-3, in the test with RXF 393, with SF-268, in the test on SK-MEL-28, in the test with SK-OV-3 and in the test with SN12C was > 100 µM (inactive) throughout. The GI50 in the test with SNB-19 and in the test with SR was > 100 µM (inactive) each time.

As for `CCOC(=O)N1c2ccccc2N(C(=O)OCC)C1CC(=O)/C=C/c1ccccc1`, the GI50 with A498 is 3.37 µM (inactive); in the test on CCRF-CEM, 1.86 µM (inactive); in the test with COLO 205 it was 2.04 µM (inactive); in the test with HCT-15, 2.98 µM; in the test with HOP-92, 1.97 µM (inactive); in the test with HT-29, 2.94 µM (inactive). Moreover, the GI50 was 1.87 µM (inactive) in the test on Hs-578T; 3.72 µM (inactive) with K562; 3.05 µM (inactive) with KM12; 2.45 µM (inactive) in the test on LOX IMVI; 4.45 µM (inactive) in the test with M14; 2.81 µM (inactive) in the test on NCI-H226. Moreover, the GI50 in the test on PC-3 is 3.94 µM (inactive); in the test with RXF 393 it was 3.85 µM (inactive); in the test on SF-268, 2.37 µM (inactive); in the test on SK-MEL-28 it was 7.57 µM (inactive); in the test with SK-OV-3, 5.35 µM (inactive); in the test with SN12C it was 3.66 µM (inactive). Further, the figures for the GI50 with SNB-19 and in the test with SR were 3.28 µM (inactive) and 2.3 µM (inactive), respectively.

For `COc1cccc(-c2cc(O)c3cc(N4CCN(C)CC4)ccc3n2)c1`, the GI50 with A498 is 1.06 µM (active); in the test on CCRF-CEM it was 0.986 µM (active); in the test on COLO 205 it was 1.67 µM (inactive); with HCT-15, 1.75 µM; with HOP-92, 1.06 µM (active); with HT-29 it was 2.24 µM (inactive). For the same compound, the GI50 in the test on Hs-578T was 0.774 µM (active); in the test on K562, 0.628 µM (active); in the test with KM12 it was 1.91 µM (inactive); with LOX IMVI it was 1.73 µM (inactive); with M14, 1.99 µM (inactive); with NCI-H226, 1.71 µM (inactive). The GI50 in the test on PC-3 is 2.44 µM (inactive); with RXF 393, 1.18 µM (inactive); with SF-268, 1.91 µM (inactive); in the test on SK-MEL-28, 1.47 µM (inactive); with SK-OV-3, 2.82 µM (inactive); in the test on SN12C, 2.92 µM (inactive). The GI50 with SNB-19 is 2.77 µM (inactive); with SR, 0.42 µM (active).

`O=C(O)c1cccc2c1/C(=N/Nc1ccccc1)CC2`: the GI50 with A498 is > 100 µM (inactive); in the test with CCRF-CEM, > 100 µM (inactive); with HCT-15, over 100 µM; in the test with HOP-92 it was > 100 µM (inactive); with HT-29, > 100 µM (inactive); in the test with Hs-578T, > 100 µM (inactive). Moreover, the GI50 in the test with K562 is > 100 µM (inactive); with KM12, > 100 µM (inactive); in the test on LOX IMVI, > 100 µM (inactive); in the test with M14, 16.6 µM (inactive); in the test with NCI-H226, 19.9 µM (inactive); with PC-3, > 100 µM (inactive). Moreover, the GI50 in the test with RXF 393, with SF-268, in the test with SK-MEL-28, in the test on SK-OV-3 and with SR was > 100 µM (inactive) in each case.

`C#CC1(O)CCCCCCCCC2(CCCCCCCC1)OCCO2`: the GI50 is 14.7 µM (inactive) in the test with A498; 17.4 µM (inactive) with COLO 205; 18 µM in the test with HCT-15; 17.4 µM (inactive) in the test with HOP-92; 18.3 µM (inactive) in the test on HT-29; 17.8 µM (inactive) in the test on Hs-578T. For the same compound, the GI50 with K562 is 17.5 µM (inactive); with KM12, 18.6 µM (inactive); in the test on LOX IMVI, 22.1 µM (inactive); in the test on M14, 19.6 µM (inactive); in the test with NCI-H226, 17 µM (inactive); in the test with PC-3, 12.8 µM (inactive). For the same compound, the GI50 was 10.9 µM (inactive) in the test on RXF 393; 17.3 µM (inactive) in the test on SF-268; 19.5 µM (inactive) in the test on SK-MEL-28; 18.7 µM (inactive) in the test on SK-OV-3; 17.4 µM (inactive) in the test on SN12C; 18.9 µM (inactive) with SNB-19. Moreover, the GI50 in the test with SR was 12.3 µM (inactive).

Turning to `Cn1c(=S)c2nc(SCc3cccnc3)[nH]c2n(C)c1=O`, the GI50 with A498 is > 100 µM (inactive); in the test on COLO 205, > 100 µM (inactive); in the test with HCT-15, over 100 µM; in the test on HOP-92, > 100 µM (inactive); in the test with HT-29, > 100 µM (inactive); in the test on Hs-578T, 92 µM (inactive). In addition, the GI50 in the test on K562, with KM12, in the test with LOX IMVI, with M14, with NCI-H226 and with PC-3 was > 100 µM (inactive) each time. For the same compound, the GI50 in the test with RXF 393, in the test on SF-268, in the test on SK-MEL-28, in the test on SK-OV-3, with SN12C and with SNB-19 was > 100 µM (inactive) in each case. The GI50 in the test with SR was > 100 µM (inactive).

`NCCCN(CCCN(C(=O)Nc1ccccc1)c1ccccc1)C(=O)Nc1ccccc1`: the GI50 in the test with A498 was 87.1 µM (inactive); in the test on CCRF-CEM, 59.2 µM (inactive); with COLO 205 it was 36.8 µM (inactive); in the test with HCT-15 it was 28.9 µM; in the test with HOP-92 it was 27.2 µM (inactive); in the test with HT-29 it was 29.8 µM (inactive). For the same compound, the GI50 was 32.7 µM (inactive) with Hs-578T; 34.9 µM (inactive) in the test with K562; 23.5 µM (inactive) in the test on LOX IMVI; 19.4 µM (inactive) with M14; 44 µM (inactive) with NCI-H226; 33.7 µM (inactive) in the test on PC-3. Further, the GI50 in the test on RXF 393 was 24.5 µM (inactive); with SF-268, 32.6 µM (inactive); in the test with SK-MEL-28, 16.7 µM (inactive); with SK-OV-3 it was 45.6 µM (inactive); in the test with SN12C it was 64.9 µM (inactive); in the test on SNB-19, 52.4 µM (inactive). Also, the GI50 with SR was 45 µM (inactive).
